Among the data in patent US10508109B2 (priority 2015, dated 2019) are IC50 values, retold here.

The target of one assay is SUV39H2 (Homo sapiens (Human), UniProt Q9H5I1). The experiment in a line: biochemical. The assay is classed as biochemical. The settings on record: 3H-SAM 100 nM, H3 Histone Peptide 350 nM, room temperature 3 hours. The gist of the method: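 Scintillation proximity format: reactions were halted with streptavidin SPA beads (50 μg/well final) after 3 h at room temperature with enzyme dosed by lot-specific activity.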

Another assay deals with A549. The experiment in a line: Cell-based assay, anti-proliferative activity (Cell Counting Kit-8, 72 hours). The settings on record: Homo sapiens, read-out: A549 IC50. In short, it runs like this: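 Seed cells in 96-well format; add inhibitors; measure growth by CCK-8 at end of exposure; derive IC50.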
(Tetrazolium dyes change colour on reduction, which living cells bring about.)

Setting [1] is: A549 cells, 72 hours exposure, Cell Counting Kit-8.

Counter-ions that a name gives are not always drawn. Like-named read-outs stand apart in the source and are kept apart here.

The IC50 is the point on the concentration scale where inhibition reaches its midpoint.

Chain of SUV39H2 (Q9H5I1 whole entry): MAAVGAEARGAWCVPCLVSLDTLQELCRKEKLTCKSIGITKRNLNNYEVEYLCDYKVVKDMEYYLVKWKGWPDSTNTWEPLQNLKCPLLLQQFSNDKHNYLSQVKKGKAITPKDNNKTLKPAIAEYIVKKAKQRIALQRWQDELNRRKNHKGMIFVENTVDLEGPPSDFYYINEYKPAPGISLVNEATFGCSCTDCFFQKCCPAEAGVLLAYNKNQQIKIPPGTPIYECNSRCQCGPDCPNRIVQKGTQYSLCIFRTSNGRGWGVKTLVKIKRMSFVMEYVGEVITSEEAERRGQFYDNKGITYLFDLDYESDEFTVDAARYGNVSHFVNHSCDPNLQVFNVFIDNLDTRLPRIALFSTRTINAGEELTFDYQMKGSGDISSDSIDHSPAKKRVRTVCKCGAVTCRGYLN

Turning to `COc1cc(OC)c(-c2cn3ccc(N[C@H]4CC[C@H](NCc5cccc(C#N)c5)CC4)cc3n2)cc1Cl` [Example 397, 3-((((1r,4r)-4-((2-(5-chloro-2,4-dimethoxyphenyl)imidazo[1,2-a]pyridin-7-yl)amino)cyclohexyl)amino)methyl)benzonitrile], the IC50 on SUV39H2 is 64.6 nM; in the assay with A549 (setting [1]), 700 nM.

As to `COc1cc(OC)c(-c2cn3ccc(N4CC[C@H](NC(C)c5ccncc5)C4)cc3n2)cc1Cl` (stereo partly drawn) [Example 407, (3S)-1-(2-(5-chloro-2,4-dimethoxyphenyl)imidazo[1,2-a]pyridin-7-yl)-N-(1-(pyridin-4-yl)ethyl)pyrrolidin-3-amine dihydrochloride], the IC50 against SUV39H2 was 7.7 nM; with A549 (A549, 72 h), 950 nM.

Regarding `COc1cc(OC)c(-c2cn3ccc(N[C@H]4CC[C@H](Nc5ncccn5)CC4)cc3n2)cc1Cl` [Example 318, (1r,4r)-N^1-(2-(5-chloro-2,4-dimethoxyphenyl)imidazo[1,2-a]pyridin-7-yl)-N^4-(pyrimidin-2-yl)cyclohexane-1,4-diamine hydrochloride], the IC50 at SUV39H2 is 9.73 nM; in the assay on A549 (setting [1]), 180 nM.

`COc1cc(OC)c(-c2cn3ccc(N4CC[C@H](NC(C)C5CCCCC5)C4)cc3n2)cc1Cl` (stereo partly drawn) [Example 416, (3S)-1-(2-(5-chloro-2,4-dimethoxyphenyl)imidazo[1,2-a]pyridin-7-yl)-N-(1-cyclohexylethyl)pyrrolidin-3-amine]: the results for the IC50 against SUV39H2 and with A549 (setting [1]) were 47.6 nM and 670 nM, respectively.

For `COc1cc(OC)c(-c2cn3ccc(N4CCN(c5cc(N6CCCCC6)ncn5)CC4)cc3n2)cc1Cl` [Example 353, 2-(5-chloro-2,4-dimethoxyphenyl)-7-(4-(6-(piperidin-1-yl)pyrimidin-4-yl)piperazin-1-yl)imidazo[1,2-a]pyridine], the IC50 on SUV39H2 came to 41.9 nM; in the assay on A549 (setting [1]), 780 nM.

As to `COc1cc(OC)c(-c2cn3ccc(N[C@H]4CC[C@H](NCc5ccccc5O)CC4)cc3n2)cc1Cl` [Example 420, 2-((((1r,4r)-4-((2-(5-chloro-2,4-dimethoxyphenyl)imidazo[1,2-a]pyridin-7-yl)amino)cyclohexyl)amino)methyl)phenol], the IC50 at SUV39H2 stood at 64.6 nM; with A549 (setting [1]) it was 720 nM.

With `COc1cc(OC)c(-c2cn3ccc(N4CC[C@H](NC(=O)c5ccccn5)C4)cc3n2)cc1Cl` [Example 404, (S)—N-(1-(2-(5-chloro-2,4-dimethoxyphenyl)imidazo[1,2-a]pyridin-7-yl)pyrrolidin-3-yl)picolinamide], the IC50 on SUV39H2 amounted to 4.03 nM; in the assay on A549 (setting [1]), 1500 nM.

For the molecule `COc1cc(OC)c(-c2cn3ccc(N4CCN(c5nc(N)nc(N6CCC(N(C)C)C6)n5)CC4)cc3n2)cc1Cl` (stereo not shown) [Example 436, 4-(4-(2-(5-chloro-2,4-dimethoxyphenyl)imidazo[1,2-a]pyridin-7-yl)piperazin-1-yl)-6-(3-(dimethylamino)pyrrolidin-1-yl)-1,3,5-triazin-2-amine], the IC50 against SUV39H2 was determined as 11.7 nM; with A549 (setting [1]), 650 nM.

`COc1cc(OC)c(-c2cn3ccc(N4CCC(Nc5ccncn5)CC4)cc3n2)cc1Cl` [Example 374, N-(1-(2-(5-chloro-2,4-dimethoxyphenyl)imidazo[1,2-a]pyridin-7-yl)piperidin-4-yl)pyrimidin-4-amine]: the results for the IC50 against SUV39H2 and in the assay on A549 (setting [1]) were 31.4 nM and 660 nM, respectively.

For the molecule `COc1cc(OC)c(-c2cn3ccc(N[C@H]4C[C@H]5CC[C@@H](C4)N5CC(C)(C)C)cc3n2)cc1Cl` [Example 452, 2-(5-chloro-2,4-dimethoxyphenyl)-N-((1R,3r,5S)-8-neopentyl-8-azabicyclo[3.2.1]octan-3-yl)imidazo[1,2-a]pyridin-7-amine], the IC50 worked out at 42.6 nM against SUV39H2 and 830 nM with A549 (setting [1]).

With `COc1cc(OC)c(-c2cn3ccc(N4CCCN(CC5CCCC5)CC4)cc3n2)cc1Cl` [Example 442, 2-(5-chloro-2,4-dimethoxyphenyl)-7-(4-(cyclopentylmethyl)-1,4-diazepan-1-yl)imidazo[1,2-a]pyridine], the IC50 at SUV39H2 came out at 13.9 nM; with A549 (setting [1]) it was 730 nM.

As for `COc1cc(OC)c(-c2cn3ccc(N[C@H]4CC[C@H](NCc5ccc(C)cc5)CC4)cc3n2)cc1Cl` [Example 328, (1r,4r)-N^1-(2-(5-chloro-2,4-dimethoxyphenyl)imidazo[1,2-a]pyridin-7-yl)-N^4-(4-methylbenzyl)cyclohexane-1,4-diamine (2,2,2-trifluoroacetate)], the IC50 turned out to be 60.5 nM against SUV39H2 and 360 nM in the assay on A549 (setting [1]).

In the case of `COc1cc(OC)c(-c2cn3ccc(N4CCN(c5ncnc(N(C)C)n5)CC4)cc3n2)cc1Cl` [Example 450, 4-(4-(2-(5-chloro-2,4-dimethoxyphenyl)imidazo[1,2-a]pyridin-7-yl)piperazin-1-yl)-N,N-dimethyl-1,3,5-triazin-2-amine], the IC50 at SUV39H2 was 33.6 nM; in the assay on A549 (setting [1]), 730 nM.

As for `COc1cc(OC)c(-c2cn3ccc(N[C@H]4C[C@H]5CC[C@@H](C4)N5C(=O)OC(C)(C)C)cc3n2)cc1Cl` [Example 444, (1R,3r,5S)-tert-butyl 3-((2-(5-chloro-2,4-dimethoxyphenyl)imidazo[1,2-a]pyridin-7-yl)amino)-8-azabicyclo[3.2.1]octane-8-carboxylate], the IC50 was 78 nM against SUV39H2 and 780 nM in the assay on A549 (setting [1]).

In the case of `COc1cc(OC)c(-c2cn3ccc(N4CC[C@H](NCc5ccc(N(C)C(=O)OC(C)(C)C)cc5)C4)cc3n2)cc1Cl` [Example 394, (S)-tert-butyl (4-(((1-(2-(5-chloro-2,4-dimethoxyphenyl)imidazo[1,2-a]pyridin-7-yl)pyrrolidin-3-yl)amino)methyl)phenyl)(methyl)carbamate], the values for the IC50 against SUV39H2 and in the assay on A549 (setting [1]) were 10.3 nM and 800 nM, respectively.

Consider `COc1cc(OC)c(-c2cn3ccc(N4CCN(C(=O)c5ccncc5)CC4)cc3n2)cc1Cl` [Example 319, (4-(2-(5-chloro-2,4-dimethoxyphenyl)imidazo[1,2-a]pyridin-7-yl)piperazin-1-yl)(pyridin-4-yl)methanone], for which the figures for the IC50 at SUV39H2 and in the assay on A549 (setting [1]) were 16.4 nM and 4600 nM, respectively.

In the case of `COc1cc(OC)c(-c2cn3ccc(N4CCN(c5cnc(N6CCCC(N)C6)nc5)CC4)cc3n2)cc1Cl` (stereo not shown) [Example 417, 1-(5-(4-(2-(5-chloro-2,4-dimethoxyphenyl)imidazo[1,2-a]pyridin-7-yl)piperazin-1-yl)pyrimidin-2-yl)piperidin-3-amine], the IC50 against SUV39H2 came out at 9.91 nM; in the assay on A549 (setting [1]) it was 620 nM.

As for `COc1cc(OC)c(-c2cn3ccc(N4CC[C@H](NCc5ccnc(Cl)c5)C4)cc3n2)cc1Cl` [Example 413, (S)-1-(2-(5-chloro-2,4-dimethoxyphenyl)imidazo[1,2-a]pyridin-7-yl)-N-((2-chloropyridin-4-yl)methyl)pyrrolidin-3-amine dihydrochloride], the IC50 amounted to 6.35 nM against SUV39H2 and 770 nM in the assay on A549 (A549, 72 h).

With `COc1cc(OC)c(-c2cn3ccc(N[C@H]4CC[C@@H](NCc5ccc(C)cc5)CC4)cc3n2)cc1Cl` [Example 329, cis-N^1-(2-(5-chloro-2,4-dimethoxyphenyl)imidazo[1,2-a]pyridin-7-yl)-N^4-(4-methylbenzyl)cyclohexane-1,4-diamine], the results for the IC50 against SUV39H2 and in the assay on A549 (setting [1]) were 38.8 nM and 780 nM, respectively.

Regarding `COc1cc(OC)c(-c2cn3ccc(N4CCN(c5cnc(N6CCC(N)C6)nc5)CC4)cc3n2)cc1Cl` (stereo not shown) [Example 378, 1-(5-(4-(2-(5-chloro-2,4-dimethoxyphenyl)imidazo[1,2-a]pyridin-7-yl)piperazin-1-yl)pyrimidin-2-yl)pyrrolidin-3-amine dihydrochloride], the IC50 on SUV39H2 was 22.8 nM; in the assay with A549 (A549, 72 h), 680 nM.

Consider `COc1cc(OC)c(-c2cn3ccc(N4CCN(c5nc(N)nc(Cl)n5)CC4)cc3n2)cc1Cl` [Example 361, 4-chloro-6-(4-(2-(5-chloro-2,4-dimethoxyphenyl)imidazo[1,2-a]pyridin-7-yl)piperazin-1-yl)-1,3,5-triazin-2-amine], for which the IC50 on SUV39H2 turned out to be 43.3 nM; in the assay with A549 (setting [1]) it was 870 nM.

Regarding `COc1cc(OC)c(-c2cn3ccc(N4CCN(c5cc(C)ccn5)CC4)cc3n2)cc1Cl` [Example 327, 2-(5-chloro-2,4-dimethoxyphenyl)-7-(4-(4-methylpyridin-2-yl)piperazin-1-yl)imidazo[1,2-a]pyridine], the IC50 against SUV39H2 was found to be 46.7 nM; in the assay with A549 (A549, 72 h), 870 nM.

For `COc1cc(OC)c(-c2cn3ccc(N4CCN(c5ccnc(N6CCNCC6)n5)CC4)cc3n2)cc1Cl` [Example 341, 2-(5-chloro-2,4-dimethoxyphenyl)-7-(4-(2-(piperazin-1-yl)pyrimidin-4-yl)piperazin-1-yl)imidazo[1,2-a]pyridine], the IC50 at SUV39H2 came out at 23.4 nM; in the assay on A549 (A549, 72 h), 740 nM.

Consider `COc1cc(OC)c(-c2cn3ccc(N4CCN(c5ccnc(N6CCN(C)CC6)n5)CC4)cc3n2)cc1Cl` [Example 351, 2-(5-chloro-2,4-dimethoxyphenyl)-7-(4-(2-(4-methylpiperazin-1-yl)pyrimidin-4-yl)piperazin-1-yl)imidazo[1,2-a]pyridine], for which the IC50 on SUV39H2 was 28.6 nM; with A549 (setting [1]), 860 nM.

As to `COc1cc(OC)c(-c2cn3ccc(N4CCN(c5cc(N6CCOCC6)nc(N)n5)CC4)cc3n2)cc1Cl` [Example 384, 4-(4-(2-(5-chloro-2,4-dimethoxyphenyl)imidazo[1,2-a]pyridin-7-yl)piperazin-1-yl)-6-morpholinopyrimidin-2-amine], the values for the IC50 at SUV39H2 and in the assay on A549 (setting [1]) were 10.9 nM and 940 nM, respectively.

With `COc1cc(OC)c(-c2cn3ccc(N4CCC[C@H](NCC5CCN(C(=O)OC(C)(C)C)CC5)C4)cc3n2)cc1Cl` [Example 454, (S)-tert-butyl 4-(((1-(2-(5-chloro-2,4-dimethoxyphenyl)imidazo[1,2-a]pyridin-7-yl)piperidin-3-yl)amino)methyl)piperidine-1-carboxylate], the values for the IC50 at SUV39H2 and with A549 (setting [1]) were 27 nM and 760 nM, respectively.
